Eight compounds from PubChem BioAssay (NCI) can be followed below.

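Protocol summary: plate cells (96-well), add compound at 5 concentrations, incubate 48 h, interpolate endpoints linearly. Definition used: TGI = concentration required for complete inhibition of growth.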 Some results are limits rather than exact numbers.

Test systems include DU-145 prostate; MDA-N; M14 melanoma; NCI-H460 lung; NCI/ADR-RES ovarian; RXF 393 renal; OVCAR-8 ovarian; MDA-MB-231 breast; K-562 leukemia; IGROV1 ovarian; HOP-92 NSCLC; U251 CNS; SK-MEL-5 melanoma; UO-31 renal; HOP-62 NSCLC; MCF7 breast; CCRF-CEM leukemia; SF-268 CNS; HL-60(TB) leukemia; T-47D breast.
Experiment in all cases: NCI-60 cell line screen, 48 h

Turning to `O=C1C(c2c(O)[nH]c3ccc(F)cc23)=Nc2ccccc21`, the TGI is > 100 µM in the test on DU-145 prostate; > 100 µM in the test with MDA-N; > 100 µM with M14 melanoma; > 100 µM with NCI-H460 lung; > 100 µM in the test with NCI/ADR-RES ovarian; 9.77 µM in the test on RXF 393 renal. Moreover, the TGI in the test on OVCAR-8 ovarian was 43.8 µM; in the test with MDA-MB-231 breast, 54.6 µM; in the test with K-562 leukemia, > 100 µM; in the test on IGROV1 ovarian it was > 100 µM; with HOP-92 NSCLC it was 65.6 µM; with U251 CNS, 42.7 µM. Further, the TGI in the test with SK-MEL-5 melanoma, with UO-31 renal, in the test on HOP-62 NSCLC, in the test with MCF7 breast, in the test on CCRF-CEM leukemia and in the test with SF-268 CNS was > 100 µM in each case.
`N#Cc1c2ccccc2cn1-c1ccc(F)cc1`: the TGI in the test with HL-60(TB) leukemia is 24.2 µM; in the test with M14 melanoma it was > 100 µM; with NCI-H460 lung, > 100 µM; in the test on K-562 leukemia, > 100 µM; in the test on IGROV1 ovarian, > 100 µM; with HOP-92 NSCLC it was 68.5 µM. Besides, the TGI is > 100 µM with U251 CNS; 39.6 µM with UO-31 renal; > 100 µM with HOP-62 NSCLC; > 100 µM in the test with CCRF-CEM leukemia; 99.5 µM in the test with SF-268 CNS.
Take `S=c1sc2c(Cl)nc(Cl)nc2n1-c1ccccc1`: the TGI is 82.6 µM in the test with HL-60(TB) leukemia; 43 µM in the test with M14 melanoma; > 100 µM in the test with NCI-H460 lung; 50.6 µM with RXF 393 renal; > 100 µM with OVCAR-8 ovarian; > 100 µM in the test with K-562 leukemia. Moreover, the TGI in the test with IGROV1 ovarian was 33.6 µM; with HOP-92 NSCLC it was > 100 µM; in the test on U251 CNS it was 98 µM; with SK-MEL-5 melanoma, > 100 µM; in the test on UO-31 renal, > 100 µM; in the test with HOP-62 NSCLC, > 100 µM. The TGI in the test with CCRF-CEM leukemia amounted to 75.8 µM; with SF-268 CNS, 23.2 µM.
In the case of `CN1C2CCC1CC(=CCOC(c1ccc(F)cc1)c1ccc(F)cc1)C2`, the TGI in the test on DU-145 prostate worked out at 30.5 µM; in the test on HL-60(TB) leukemia, 43.5 µM; with M14 melanoma, 31.9 µM; in the test with NCI-H460 lung, 35.3 µM; in the test with NCI/ADR-RES ovarian, 40.1 µM; in the test with RXF 393 renal it was 28.2 µM. The TGI in the test on OVCAR-8 ovarian was 32 µM; in the test with MDA-MB-231 breast it was 37.1 µM; in the test with T-47D breast, 35.1 µM; with K-562 leukemia, 28 µM; in the test with IGROV1 ovarian, 30.1 µM; in the test on U251 CNS, 33.2 µM. Further, the TGI was 23.2 µM with SK-MEL-5 melanoma; 21.8 µM in the test on UO-31 renal; 32.2 µM in the test with HOP-62 NSCLC; 34.6 µM in the test with MCF7 breast; > 100 µM in the test with CCRF-CEM leukemia; 27 µM in the test on SF-268 CNS.
For `COc1ccc(/C=C2\N=C(SC)N(CN3CCOCC3)C2=O)cc1`, the TGI in the test with DU-145 prostate, with HL-60(TB) leukemia, in the test with MDA-N, in the test with M14 melanoma, in the test on NCI/ADR-RES ovarian and in the test on OVCAR-8 ovarian was > 100 µM throughout. The TGI in the test on MDA-MB-231 breast was > 100 µM; in the test on K-562 leukemia it was > 100 µM; with IGROV1 ovarian, > 100 µM; with HOP-92 NSCLC, 67.4 µM; in the test on U251 CNS it was > 100 µM; in the test with SK-MEL-5 melanoma, > 100 µM. Besides, the TGI with UO-31 renal, with HOP-62 NSCLC, with MCF7 breast, in the test on CCRF-CEM leukemia and with SF-268 CNS was > 100 µM in each case.
Consider `CN(C)C1(N(C)C)Oc2c(c(=O)n(C)c(=O)n2C)C(c2ccccc2)C1(F)F` (centres undefined), for which the TGI with DU-145 prostate, in the test with M14 melanoma, in the test on NCI-H460 lung, in the test with NCI/ADR-RES ovarian, in the test on RXF 393 renal and in the test with MDA-MB-231 breast was > 100 µM in each case. The TGI in the test with T-47D breast, in the test with K-562 leukemia, in the test with HOP-92 NSCLC, with U251 CNS, in the test with SK-MEL-5 melanoma and with UO-31 renal was > 100 µM in each case. Further, the TGI in the test with HOP-62 NSCLC, in the test on MCF7 breast, with CCRF-CEM leukemia and in the test with SF-268 CNS was > 100 µM in each case.
For `NNC(=O)c1n[nH]nc1C(=O)NN`, the TGI with DU-145 prostate, in the test with HL-60(TB) leukemia, with MDA-N, in the test on M14 melanoma, in the test with NCI-H460 lung and in the test on NCI/ADR-RES ovarian was > 100 µM throughout. Further, the TGI in the test with RXF 393 renal, in the test on OVCAR-8 ovarian, in the test with MDA-MB-231 breast, with K-562 leukemia, in the test on U251 CNS and in the test with SK-MEL-5 melanoma was > 100 µM throughout. For the same compound, the TGI was 41.8 µM in the test with UO-31 renal; > 100 µM with HOP-62 NSCLC; > 100 µM in the test on MCF7 breast; > 100 µM with CCRF-CEM leukemia; > 100 µM in the test with SF-268 CNS.
Consider `O=C(Nc1nc(C23CC4CC(CC(C4)C2)C3)cs1)c1cc2ccc(O)cc2oc1=O`, for which the TGI in the test on DU-145 prostate is > 100 µM; with HL-60(TB) leukemia, 34.6 µM; with MDA-N, 41.3 µM; with NCI-H460 lung it was 52.7 µM; with NCI/ADR-RES ovarian it was 48.5 µM; with RXF 393 renal it was 51.2 µM. Also, the TGI in the test with OVCAR-8 ovarian worked out at 90.9 µM; in the test on MDA-MB-231 breast, 48.7 µM; with K-562 leukemia, 68.2 µM; in the test on IGROV1 ovarian, 33 µM; with HOP-92 NSCLC, 15.3 µM; with U251 CNS, 28.7 µM. Also, the TGI with SK-MEL-5 melanoma was 39 µM; in the test on UO-31 renal, 31.2 µM; with HOP-62 NSCLC, 36.8 µM; in the test with MCF7 breast, 61.3 µM; with CCRF-CEM leukemia, 68.1 µM; with SF-268 CNS it was 39.9 µM.
